Patent US8889683B2, “Substituted quinoxalines as inhibitors of fatty acid binding protein” (Merck Sharp & Dohme Corp., priority 2010, dated 2014)

These compounds were tested against FABP4 (Homo sapiens, UniProt P15090) (assay: TdF-based ligand binding affinity (FABP inhibitory activity assay)). Conditions: TdF-based ligand binding affinity constant.
Text: Theoretical basis for TdF-based ligand binding affinity constant
The derivation of TdF-based ligand binding affinity constant (Kd) followed closely those previously formulated by Brandts and Lin, Biochemistry 29 (1990) 6927-6940. In brief, the binding constant of the ligand at the Tm is expressed as below: […]
where T0 is the midpoint of unfolding for unliganded protein and Tm is the midpoint of unfolding in presence of ligand. [LTm] is free ligand at Tm. The ΔHu and ΔCpu are the enthalpy of unfolding and heat capacity change of unfolding for the protein respectively. The ΔCPu is proportional to the size of protein and is an approximate quantity in the above equation (empirically, ΔCpu=(MW of protein/115)*14 cal/mol*K). Following algorithm derived by Mayhood et al, (Analytical Biochemistry 345 (2005) 187-197), the T0 and ΔHu can be determined separately from nonlinear regression fitting the temperature dependent protein alone curve to the following equation: […]
The nonlinear regression fitting in general readily reaches convergence by properly constraining the initial values for the fitting parameters (e.g. the initial “guess” for the ΔHu was constrained to 120 kcal/mol; initial Yn and mr, were set to 1 and zero to best represent the melting curve along the low temperature region; negative slope of −0.5 was initially chosen for mu; initial Tm was also constrained to 50° C.).
(see Brandts et al and Mayhood et al, shown above) where ΔHL (T) is the van't Hoff enthalpy of ligand binding at temperature T and ΔCpL is the heat capacity upon ligand binding. For simplicity, the ΔCpL and ΔHL (T) were set to zero and −7 kcal/mol respectively. (The ΔCpL accounts for minimal portion of total protein-ligand binding energetics and is therefore set to zero (For example, see Hossein Naghibi et al, Proc. Natl. Acad. Sci. 92, 5597-5599 (1995), where ΔCpL was estimated to ˜2% of ΔHL at 25° C. obtained from calorimetric study of binding RNase A and 2′-CMP)).

FABP4, sequence (P15090 whole entry): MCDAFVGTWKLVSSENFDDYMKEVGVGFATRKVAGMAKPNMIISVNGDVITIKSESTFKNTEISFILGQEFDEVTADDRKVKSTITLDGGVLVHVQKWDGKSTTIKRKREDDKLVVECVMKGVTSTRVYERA

`O=C(c1nc2cc(F)c(F)cc2nc1O)N1CCCC1Cc1cccc(Cl)c1` (racemic) [Compound 1-2, (+/−)-[2-(3-chlorobenzyl)pyrrolidin-1-yl](6,7-difluoro-3-hydroxyquinoxalin-2-yl)methanone] and `O=C(c1nc2cc(Cl)c(Cl)cc2nc1O)N1CCCC1Cc1cccc(Cl)c1` (racemic) [Compound 1-13, (+/−)-[2-(3-Chlorobenzyl)pyrrolidin-1-yl](6,7-dichloro-3-hydroxyquinoxalin-2-yl)methanone] are within 1.5-fold of each other in Kd: 80 nM for the first, 63 nM for the second.

Going from `O=C(c1nc2cc(F)ccc2nc1O)N1CCCC1Cc1cccc(Cl)c1` (racemic) [Compound 1-3, (+/−)-[2-(3-Chlorobenzyl)pyrrolidin-1-yl](7-fluoro-3-hydroxyquinoxalin-2-yl)methanone] to `O=C(c1nc2ccc(F)cc2nc1O)N1CCCC1Cc1cccc(Cl)c1` (racemic) [Compound 1-4, (+/−)-[2-(3-Chlorobenzyl)pyrrolidin-1-yl](6-fluoro-3-hydroxyquinoxalin-2-yl)methanone], the Kd falls from 300 nM to 180 nM (1.7-fold). The second binds more tightly here.

Going from `O=C(c1nc2c(Cl)cccc2nc1O)N1CCCC1Cc1cccc(Cl)c1` (racemic) [Compound 1-8, (+/−)-(8-Chloro-3-hydroxyquinoxalin-2-yl)[2-(3-chlorobenzyl)pyrrolidin-1-yl]methanone] to `O=C(c1nc2cccc(Cl)c2nc1O)N1CCCC1Cc1cccc(Cl)c1` (racemic) [Compound 1-11, (+/−)-(5-Chloro-3-hydroxyquinoxalin-2-yl)[2-(3-chlorobenzyl)pyrrolidin-1-yl]methanone], the Kd falls from 110 nM to 3 nM (37-fold). The second binds more tightly here.

Going from `O=C(c1nc2cc(Cl)ccc2nc1O)N1CCCC1Cc1cccc(Cl)c1` (racemic) [Compound 1-9, (+/−)-(7-Chloro-3-hydroxyquinoxalin-2-yl)[2-(3-chlorobenzyl)pyrrolidin-1-yl]methanone] to `O=C(c1nc2ccc(Cl)cc2nc1O)N1CCCC1Cc1cccc(Cl)c1` (racemic) [Compound 1-10, (+/−)-(6-Chloro-3-hydroxyquinoxalin-2-yl)[2-(3-chlorobenzyl)pyrrolidin-1-yl]methanone], the Kd falls from 410 nM to 250 nM (1.6-fold). The second binds more tightly here.

`O=C(c1nc2cc(I)ccc2nc1O)N1CCCC1Cc1cccc(Cl)c1` (racemic) [Compound 1-18, (+/−)-[2-(3-Chlorobenzyl)pyrrolidin-1-yl](3-hydroxy-7-iodoquinoxalin-2-yl)methanone] and `O=C(c1nc2ccc(I)cc2nc1O)N1CCCC1Cc1cccc(Cl)c1` (racemic) [Compound 1-19, (+/−)-[2-(3-Chlorobenzyl)pyrrolidin-1-yl](3-hydroxy-6-iodoquinoxalin-2-yl)methanone] are within 1.5-fold of each other in Kd: 630 nM for the first, 460 nM for the second.

First: O=C(c1nc2cc(OC(F)(F)F)ccc2nc1O)N1CCCC1Cc1cccc(Cl)c1 (racemic) [Compound 1-20, (+/−)-[2-(3-Chlorobenzyl)pyrrolidin-1-yl][3-hydroxy-7-(trifluoromethoxy)quinoxalin-2-yl]methanone]
Second: O=C(c1nc2ccc(OC(F)(F)F)cc2nc1O)N1CCCC1Cc1cccc(Cl)c1 (racemic) [Compound 1-21, (+/−)-[2-(3-Chlorobenzyl)pyrrolidin-1-yl][3-hydroxy-6-(trifluoromethoxy)quinoxalin-2-yl]methanone]
The Kd of the first is 4.3-fold higher: 950 nM for the first, 220 nM for the second. The second binds more tightly here.

`O=C(c1nc2cc(SC(F)(F)F)ccc2nc1O)N1CCCC1Cc1cccc(Cl)c1` (racemic) [Compound 1-22, (+/−)-[2-(3-Chlorobenzyl)pyrrolidin-1-yl][3-hydroxy-7-(trifluoromethylthio]quinoxalin-2-yl)methanone] and `O=C(c1nc2ccc(SC(F)(F)F)cc2nc1O)N1CCCC1Cc1cccc(Cl)c1` (racemic) [Compound 1-23, (+/−)-[2-(3-Chlorobenzyl)pyrrolidin-1-yl][3-hydroxy-6-(trifluoromethylthio]quinoxalin-2-yl)methanone] are the same in Kd: 24 nM for the first, 24 nM for the second.

With `O=C(c1nc2cc(S(=O)(=O)C(F)(F)F)ccc2nc1O)N1CCCC1Cc1cccc(Cl)c1` (racemic) [Compound 1-24, (+/−)-[2-(3-Chlorobenzyl)pyrrolidin-1-yl][3-hydroxy-7-(trifluoromethylsulfonyl)quinoxalin-2-yl]methanone] the Kd was 300 nM.
